Experiments:
Type in all cases: cell-based
[1] = system: SK-MEL-5
[2] = system: UACC-62
[3] = system: OVCAR-5
[4] = system: OVCAR-8
[5] = system: NCI/ADR-RES
[6] = system: SK-OV-3
[7] = system: 786-0
[8] = system: A498
[9] = system: RXF 393; conditions: Renal cancer; 10^−5 molar; 48 hours; SRB
[10] = system: SN12C
[11] = system: TK-10
[12] = system: UO-31
[13] = system: PC-3
[14] = system: DU-145
[15] = system: MCF7
[16] = system: MDA-MB-231/ATCC
[17] = system: BT-549
[18] = system: T-47D
[19] = system: MDA-MB-486
[20] = system: 60 cancer cell lines; experiment: NCI 60-cell screen, SRB, whole panel (mean, delta, range)
[21] = Melanoma, 10^−5 molar, 48 hours, SRB
[22] = Ovarian cancer, 10^−5 molar, 48 hours, SRB
[23] = Renal cancer, 10^−5 molar, 48 hours, SRB
[24] = Prostate cancer, 10^−5 molar, 48 hours, SRB
[25] = Breast cancer, 10^−5 molar, 48 hours, SRB

`NCCNc1nc2ccccc2c2c(=O)c3cc(Cl)ccc3sc12` [Compound N14, 6-((2-Aminoethyl)amino)-10-chloro-12H-thiochromeno[2,3-c]quinolin-12-one] was tested, and the LC50 ([1]; Homo sapiens, SK-MEL-5, five dose) was 5.44 µM, the “Growth percent SK-MEL-5” value [1, 21] was 68.64% and the TGI ([1]; SK-MEL-5, five dose) was 2.87 µM. The GI50 ([2]; Homo sapiens, UACC-62, five dose) was 1.67 µM, the CC50 ([2]; Homo sapiens, UACC-62, five dose, read-out: LC50 (the source's name)) was 6.52 µM and the “Growth percent UACC-62” value [2, 21] was −96.67%. The TGI ([2]; UACC-62, five dose) was 3.30 µM, the GI50 ([3]; Homo sapiens, OVCAR-5, five dose) was 1.46 µM and the CC50 ([3]; Homo sapiens, OVCAR-5, five dose, read-out: LC50 (the source's name)) was 5.66 µM. The TGI ([3]; OVCAR-5, five dose) was 2.88 µM, the “Growth percent OVCAR-5” value [3, 22] was −52.16% and the GI50 ([4]; Homo sapiens, OVCAR-8, five dose) was 1.89 µM. The TGI ([4]; OVCAR-8, five dose) was 4.12 µM, the “Growth percent OVCAR-8” value [4, 22] was −74.59% and the GI50 ([5]; Homo sapiens, NCI/ADR-RES, five dose) was 1.88 µM. The TGI ([5]; NCI/ADR-RES, five dose) was 3.67 µM, the “Growth percent NCI/ADR-RES” value [5, 22] was −42.68% and the GI50 ([6]; Homo sapiens, SK-OV-3, five dose) was 1.78 µM. The CC50 ([6]; Homo sapiens, SK-OV-3, five dose, read-out: LC50 (the source's name)) was 6.42 µM, the “Growth percent SK-OV-3” value [6, 22] was 12.25% and the TGI ([6]; SK-OV-3, five dose) was 3.38 µM. The TGI ([7]; 786-0, five dose) was 3.20 µM, the GI50 ([7]; Homo sapiens, 786-0, five dose) was 1.76 µM and the CC50 ([7]; Homo sapiens, 786-0, five dose, read-out: LC50 (the source's name)) was 5.81 µM. For the same molecule, the “Growth percent 786-0” value [7, 23] was −57.40%, the TGI ([8]; A498, five dose) was 4.99 µM and the GI50 ([8]; Homo sapiens, A498, five dose) was 1.45 µM. The CC50 ([8]; Homo sapiens, A498, five dose, read-out: LC50 (the source's name)) was 29.2 µM, the “Growth percent A498” value [8, 23] was 60.29% and the “Growth percent RXF 393” value [9] was −87.22%. The GI50 ([10]; Homo sapiens, SN12C, five dose) was 1.45 µM, the “Growth percent SN12C” value [10, 23] was −93.98% and the TGI ([10]; SN12C, five dose) was 3.02 µM. The GI50 ([11]; Homo sapiens, TK-10, five dose) was 2.06 µM, the CC50 ([11]; Homo sapiens, TK-10, five dose, read-out: LC50 (the source's name)) was 6.21 µM and the “Growth percent TK-10” value [11, 23] was −28.04%. It also gave a TGI ([11]; TK-10, five dose) of 3.58 µM, a GI50 ([12]; Homo sapiens, UO-31, five dose) of 1.29 µM and a CC50 ([12]; Homo sapiens, UO-31, five dose, read-out: LC50 (the source's name)) of 5.96 µM. The “Growth percent UO-31” value [12, 23] was −92.77%, the TGI ([12]; UO-31, five dose) was 2.78 µM and the GI50 ([13]; Homo sapiens, PC-3, five dose) was 1.55 µM. The CC50 ([13]; Homo sapiens, PC-3, five dose, read-out: LC50 (the source's name)) was 5.76 µM, the TGI ([13]; PC-3, five dose) was 2.99 µM and the “Growth percent PC-3” value [13, 24] was −97.71%. For the same molecule, the TGI ([14]; DU-145, five dose) was 3.20 µM, the GI50 ([14]; Homo sapiens, DU-145, five dose) was 1.81 µM and the CC50 ([14]; Homo sapiens, DU-145, five dose, read-out: LC50 (the source's name)) was 5.66 µM. For the same molecule, the “Growth percent DU-145” value [14, 24] was −96.35%, the “Growth percent MCF7 (Table 2: MCF)” value [15, 25] was −98.38% and the GI50 ([15]; Homo sapiens, MCF7, five dose) was 1.28 µM. For the same molecule, the TGI ([15]; MCF7, five dose) was 2.81 µM, the “Growth percent MDA-MB-231/ATCC” value [16, 25] was −84.52% and the GI50 ([16]; Homo sapiens, MDA-MB-231/ATCC, five dose) was 1.31 µM. The CC50 ([16]; Homo sapiens, MDA-MB-231/ATCC, five dose, read-out: LC50 (the source's name)) was 5.35 µM, the TGI ([16]; MDA-MB-231/ATCC, five dose) was 2.65 µM and the TGI ([17]; BT-549, five dose) was 5.35 µM. For the same molecule, the “Growth percent BT-549” value [17, 25] was 78.49%, the GI50 ([17]; Homo sapiens, BT-549, five dose) was 2.15 µM and the CC50 ([17]; Homo sapiens, BT-549, five dose, read-out: LC50 (the source's name)) was 62 µM. The “Growth percent T-47D” value [18, 25] was −82.45%, the GI50 ([18]; Homo sapiens, T47D, T-47D, five dose) was 1.56 µM and the TGI ([18]; T-47D, five dose) was 3.37 µM. For the same molecule, the GI50 ([19]; 60 cell, MDA-MB-486, five dose) was 1.27 µM, the CC50 ([19]; 60 cell, MDA-MB-486, five dose, read-out: LC50 (the source's name)) was 6.15 µM and the “Growth percent MDA-MB-486” value [19, 25] was −62.13%. The TGI ([19]; MDA-MB-486, five dose) was 2.80 µM, the GI50 ([20]; 60 cell, mean over panel, five dose) was 1.66 µM and the CC50 ([20]; 60 cell, mean over panel, five dose, read-out: LC50, Mean) was 7.94 µM. The “Growth percent, Delta” value ([20]; delta over the cell panel, 10^−5 molar, 48 hours, SRB) was 46.49%, the “TGI, Mean” value ([20]; mean over panel, five dose) was 3.39 µM and the “Growth percent, Mean” value ([20]; mean over the cell panel, 10^−5 molar, 48 hours, SRB) was −51.89%. The “Growth percent, Range” value ([20]; range over the cell panel, 10^−5 molar, 48 hours, SRB) was 176.87%.
